# Assay results taken from ChEMBL document CHEMBL5233226 (Eur J Med Chem, 2020).
# What was measured:
# Plasma kallikrein [1] = target: T1, Plasma kallikrein (Homo sapiens, UniProt P03952); experiment: Inhibition of human plasma kallikrein using H-D-Pro-Phe-Arg-p-nitroaniline as substrate assessed as inhibition constant
# Kallikrein-1 = Kallikrein-1 (Homo sapiens, UniProt P06870); experiment: Inhibition of KLK1 (unknown origin)
# Coagulation factor XI [2] = target: T2, Coagulation factor XI (Homo sapiens, UniProt P03951); experiment: Inhibition of fXIa (unknown origin)
# T2 sequence (P03951 19-387 limits assumed): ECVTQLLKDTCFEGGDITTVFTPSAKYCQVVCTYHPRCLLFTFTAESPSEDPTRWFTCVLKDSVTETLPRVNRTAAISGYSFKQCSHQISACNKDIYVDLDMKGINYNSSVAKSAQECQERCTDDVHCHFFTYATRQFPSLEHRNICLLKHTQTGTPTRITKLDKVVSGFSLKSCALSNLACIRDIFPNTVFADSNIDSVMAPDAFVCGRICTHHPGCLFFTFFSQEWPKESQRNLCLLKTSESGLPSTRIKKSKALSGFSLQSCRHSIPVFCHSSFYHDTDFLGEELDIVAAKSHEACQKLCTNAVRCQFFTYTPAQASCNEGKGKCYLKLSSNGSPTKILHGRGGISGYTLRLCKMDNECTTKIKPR
# T2 sequence (P03951 388-625 limits assumed): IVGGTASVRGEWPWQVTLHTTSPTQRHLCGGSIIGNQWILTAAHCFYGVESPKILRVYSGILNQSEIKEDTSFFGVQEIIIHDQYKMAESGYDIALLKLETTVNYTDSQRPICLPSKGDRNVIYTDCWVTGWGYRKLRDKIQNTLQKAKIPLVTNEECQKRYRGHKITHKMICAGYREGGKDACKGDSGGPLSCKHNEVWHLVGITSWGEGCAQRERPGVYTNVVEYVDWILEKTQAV
# Plasma kallikrein [3] = target: T1, Plasma kallikrein; experiment: Inhibition of human plasma kallikrein usingPro-Phe-Arg-AMC as substrate incubated for 5 mins; type: single protein
# Prothrombin [4] = target: T3, Prothrombin (Homo sapiens, UniProt P00734); experiment: Inhibition of human thrombin by fluorescence based analysis
# Plasminogen [5] = target: T4, Plasminogen (Homo sapiens, UniProt P00747); experiment: Inhibition of human plasmin by fluorescence based analysis
# T4 sequence (P00747 97-580 limits assumed): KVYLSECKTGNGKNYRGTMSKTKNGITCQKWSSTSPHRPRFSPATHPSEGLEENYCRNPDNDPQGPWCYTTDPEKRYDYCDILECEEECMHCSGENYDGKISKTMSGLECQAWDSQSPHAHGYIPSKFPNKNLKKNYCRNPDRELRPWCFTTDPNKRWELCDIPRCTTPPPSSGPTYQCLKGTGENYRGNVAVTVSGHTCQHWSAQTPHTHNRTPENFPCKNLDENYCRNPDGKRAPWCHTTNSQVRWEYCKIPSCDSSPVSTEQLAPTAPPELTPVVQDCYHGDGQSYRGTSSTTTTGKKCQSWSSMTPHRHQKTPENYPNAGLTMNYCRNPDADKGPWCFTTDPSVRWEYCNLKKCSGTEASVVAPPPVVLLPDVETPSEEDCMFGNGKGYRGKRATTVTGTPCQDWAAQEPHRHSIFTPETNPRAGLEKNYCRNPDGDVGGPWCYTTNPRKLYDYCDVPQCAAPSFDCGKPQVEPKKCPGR
# T4 sequence (P00747 581-810 limits assumed): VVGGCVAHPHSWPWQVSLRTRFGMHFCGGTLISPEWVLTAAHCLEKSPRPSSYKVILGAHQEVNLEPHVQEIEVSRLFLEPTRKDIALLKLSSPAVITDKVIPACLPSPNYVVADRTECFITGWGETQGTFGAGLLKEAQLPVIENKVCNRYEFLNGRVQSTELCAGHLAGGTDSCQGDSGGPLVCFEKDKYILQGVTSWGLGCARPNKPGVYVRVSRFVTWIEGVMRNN
# Prothrombin [6] = target: T3, Prothrombin; experiment: Inhibition of thrombin (unknown origin)
# Plasminogen [7] = target: T4, Plasminogen; experiment: Inhibition of plasmin (unknown origin)
# Coagulation factor XII [8] = target: T5, Coagulation factor XII (Homo sapiens, UniProt P00748); experiment: Inhibition of fXIIa (unknown origin)
# T5 sequence (P00748 whole entry): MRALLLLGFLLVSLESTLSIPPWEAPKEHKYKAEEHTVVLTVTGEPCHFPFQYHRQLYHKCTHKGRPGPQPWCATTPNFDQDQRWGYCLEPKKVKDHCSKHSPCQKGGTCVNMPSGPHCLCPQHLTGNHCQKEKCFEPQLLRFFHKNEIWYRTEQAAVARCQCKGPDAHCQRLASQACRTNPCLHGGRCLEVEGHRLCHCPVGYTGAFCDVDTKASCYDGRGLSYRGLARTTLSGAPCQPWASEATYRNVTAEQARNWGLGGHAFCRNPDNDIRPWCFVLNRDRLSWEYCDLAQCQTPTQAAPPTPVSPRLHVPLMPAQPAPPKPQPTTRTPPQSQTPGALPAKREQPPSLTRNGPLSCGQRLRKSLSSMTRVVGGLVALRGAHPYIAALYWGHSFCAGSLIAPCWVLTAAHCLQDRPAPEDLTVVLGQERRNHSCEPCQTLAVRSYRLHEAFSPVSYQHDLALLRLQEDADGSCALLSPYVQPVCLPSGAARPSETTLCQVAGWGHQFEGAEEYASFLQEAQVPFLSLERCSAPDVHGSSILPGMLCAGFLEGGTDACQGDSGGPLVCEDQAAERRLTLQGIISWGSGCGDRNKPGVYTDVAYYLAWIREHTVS
# Coagulation factor XII [9] = target: T5, Coagulation factor XII; experiment: Inhibition of human fXIIa incubated for 1 hrs
# Plasma kallikrein [10] = target: T1, Plasma kallikrein; experiment: Inhibition of human plasma kallikrein incubated for 1 hrs
# Plasma kallikrein [11] = target: T1, Plasma kallikrein; experiment: Inhibition of plasma kallikrein (unknown origin)
# Coagulation factor XI [12] = target: T2, Coagulation factor XI; experiment: Inhibition of human fXIa incubated for 1 hrs
# Plasma kallikrein [13] = target: T1, Plasma kallikrein; experiment: Inhibition of human plasma kallikrein using H-DPro-Phe-Arg-AFC as substrate
# [14] = target: Urokinase-type plasminogen activator (Homo sapiens, UniProt P00749); experiment: Inhibition of Urokinase (unknown origin)
# Trypsin = Trypsin (Homo sapiens, UniProt P07477+P07478+P35030); experiment: Inhibition of human trypsin; type: protein assay
# Prothrombin [15] = target: T3, Prothrombin; experiment: Inhibition of human thrombin
# Coagulation factor XII [16] = target: T5, Coagulation factor XII; experiment: Inhibition of human fXIIa using H-DPro-Phe-Arg-AFC as substrate
# Coagulation factor XI [17] = target: T2, Coagulation factor XI; experiment: Inhibition of human fXIa using Z-Gly-Pro-Arg-AFC as substrate
# Plasminogen [18] = target: T4, Plasminogen; experiment: Inhibition of human plasmin
# T1 sequence (P03952 20-390 limits assumed): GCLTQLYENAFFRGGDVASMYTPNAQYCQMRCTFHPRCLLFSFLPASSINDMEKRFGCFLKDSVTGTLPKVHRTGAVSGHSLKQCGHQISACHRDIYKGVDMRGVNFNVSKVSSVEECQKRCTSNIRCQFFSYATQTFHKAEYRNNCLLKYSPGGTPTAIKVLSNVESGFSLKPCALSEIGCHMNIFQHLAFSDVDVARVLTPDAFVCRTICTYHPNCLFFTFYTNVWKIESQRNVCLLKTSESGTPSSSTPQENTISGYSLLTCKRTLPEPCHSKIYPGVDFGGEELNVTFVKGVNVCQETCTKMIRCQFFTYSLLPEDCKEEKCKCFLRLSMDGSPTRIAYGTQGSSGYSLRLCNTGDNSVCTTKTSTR
# T1 sequence (P03952 391-638 limits assumed): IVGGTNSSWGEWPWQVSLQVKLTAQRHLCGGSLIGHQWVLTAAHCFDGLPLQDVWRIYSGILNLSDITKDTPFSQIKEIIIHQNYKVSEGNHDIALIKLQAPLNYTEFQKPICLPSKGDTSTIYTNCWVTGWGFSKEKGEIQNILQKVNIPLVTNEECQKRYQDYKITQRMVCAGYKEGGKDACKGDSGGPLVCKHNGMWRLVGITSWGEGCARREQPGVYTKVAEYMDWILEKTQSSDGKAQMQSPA
# Chain of Kallikrein-1 (P06870 whole entry): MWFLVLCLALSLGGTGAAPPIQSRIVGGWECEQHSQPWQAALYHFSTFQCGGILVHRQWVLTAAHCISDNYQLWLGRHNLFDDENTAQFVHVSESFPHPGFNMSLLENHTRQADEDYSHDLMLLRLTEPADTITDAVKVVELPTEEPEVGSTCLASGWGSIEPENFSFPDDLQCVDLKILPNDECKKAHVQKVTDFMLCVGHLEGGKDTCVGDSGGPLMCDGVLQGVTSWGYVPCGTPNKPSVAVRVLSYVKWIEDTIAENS
structure (smiles),measurement,setting,value
Nc1nccc2ccc(-n3nc(C(F)(F)F)cc3C(=O)Nc3cc(C(NCC4CC4)c4ccccc4)ccc3F)cc12 (configuration not stated),IC50,Plasma kallikrein [1],100 nM
Nc1nn(Cc2ccc(Cn3ccccc3=O)cc2)cc1C(=O)NCCOc1cccc(Cl)c1,IC50,Kallikrein-1,2.9 nM
same,IC50,Coagulation factor XI [2],2.9 nM
Fc1cc2[nH]cc(Cl)c2cc1CNc1ncnc2nc(Cc3ccc4ncc(Cl)cc4c3)[nH]c12,IC50,Plasma kallikrein [3],< 100 nM
CCOc1ccc(C[C@@H](NC(=O)c2ccccc2)C(=O)N[C@@H](Cc2ccccc2)C(=O)NCc2ccc(CN)cc2)cc1,IC50,Prothrombin [4],> 10000 nM
same,IC50,Plasminogen [5],> 10000 nM
same,IC50,Prothrombin [6],> 10000 nM
same,IC50,Plasminogen [7],22 nM
same,IC50,Coagulation factor XII [8],> 50000 nM
Cc1nc(N)ccc1CNC(=O)c1ccnc(Cc2ccc(Cn3ccccc3=O)c(S(C)(=O)=O)c2)c1,IC50,Plasma kallikrein [3],< 100 nM
Cc1nc(N)cc2c1CNC(=O)c1cnn(c1)Cc1ccc(Cn3cccn3)cc1OCCC/C=C\CCO2,IC50,Coagulation factor XII [9],3600 nM
same,IC50,Plasma kallikrein [10],2 nM
CO[C@@H]1C[C@H](C(=O)Nc2cc(C(N)(CCC3CC3)c3ccccn3)ccc2F)N(C(=O)Nc2ccc(Cl)cc2)C1 (some centres not stated),IC50,Plasma kallikrein [1],< 50 nM
Fc1cc2[nH]cc(Cl)c2cc1CNc1ncnc2nc(Cc3ccc4ncc(C(F)(F)F)cc4c3)[nH]c12,IC50,Plasma kallikrein [3],< 100 nM
CCO[C@@H]1C[C@H](C(=O)Nc2cc(C(N)(CCC3CC3)c3ccccn3)ccc2F)N(C(=O)Nc2ccc(Cl)cc2)C1 (some centres not stated),IC50,Plasma kallikrein [1],< 50 nM
N=C(N)NCCCC[C@H](NC(=O)C1CCC(CN)CC1)C(=O)Nc1ccc(C(=O)O)cc1 (some centres not stated),IC50,Plasma kallikrein [11],14000 nM
Cc1cnn(Cc2ccc(Cn3cc(C(=O)NCc4cnc5[nH]cc(Cl)c5c4)c(C#N)n3)cc2)c1,IC50,Plasma kallikrein [10],1 nM
Cc1cc(N)nc(C)c1CNC(=O)c1cnn(Cc2ccc(Cn3cccn3)cc2)c1,IC50,Coagulation factor XI [12],106000 nM
same,IC50,Plasma kallikrein [10],2.4 nM
COCc1nn(Cc2ccc(Cn3cccn3)cc2)cc1C(=O)NCc1ccc2c(N)nccc2c1C,IC50,Plasma kallikrein [13],0.56 nM
CC(=O)c1ccc(NC(=O)[C@H](Cc2ccccc2)NC(=O)C2CCC(CN)CC2)cc1 (some centres not stated),IC50,[14],58000 nM
same,IC50,Plasma kallikrein [11],850 nM
same,IC50,Plasminogen [7],21000 nM
COc1ccnc(CNC(=O)c2cn(Cc3ccc(Cn4ccccc4=O)cc3)nc2C(F)(F)F)c1F,IC50,Trypsin,> 40000 nM
same,IC50,Prothrombin [15],> 40000 nM
same,IC50,Coagulation factor XII [16],> 4000 nM
same,IC50,Coagulation factor XI [17],> 40000 nM
same,IC50,Kallikrein-1,> 4000 nM
same,IC50,Plasminogen [18],> 40000 nM
NC(CCC1CC1)(c1ccc(F)c(NC(=O)[C@H]2C[C@](O)(c3ccccc3)CN2C(=O)Nc2ccc(Cl)cc2)c1)c1ccccn1 (some centres not stated),IC50,Plasma kallikrein [1],< 50 nM
COCc1nn(Cc2ccc(Cn3cc(C)cn3)cc2)cc1C(=O)NCc1cnc2[nH]cc(Cl)c2c1,IC50,Plasma kallikrein [13],8.7 nM
CC(=O)c1ccc(NC(=O)C(CCCNC(=N)NS(=O)(=O)c2c(C)cc(C)cc2C)NC(=O)C2CCC(CN)CC2)cc1 (configuration not stated),IC50,Plasma kallikrein [11],2000 nM
same,IC50,Plasminogen [7],42000 nM
Clc1cnc2ccc(Cc3nc4ncnc(NCc5n[nH]c6ccc(Cl)cc56)c4[nH]3)cc2c1,IC50,Plasma kallikrein [3],< 100 nM
N=C(N)c1cccc(-n2nc(C(F)(F)F)cc2C(=O)Nc2cc(C(NCC3CC3)c3ccccc3)ccc2F)c1 (configuration not stated),IC50,Plasma kallikrein [1],100 nM
NCc1cccc(-n2nc(C(F)(F)F)cc2C(=O)Nc2cccc(C(O)c3ccccc3)c2)c1 (configuration not stated),IC50,Plasma kallikrein [1],> 50000 nM
COC(=O)c1ccc(NC(=O)[C@H](CCCCNC(=N)N)NC(=O)C2CCC(CN)CC2)cc1 (some centres not stated),IC50,Plasma kallikrein [11],18000 nM
